Data set [1] relates to 3D tumor sphere formation. The following applies: cited from earlier work.
Data set [2] concerns S-H cells (MCF7 3D-spheroids). Description: S-H cell sub-population in MCF7 3D-spheroids after treatment (auto-fluorescence flow-cytometry). The following applies: for change in S-H cells: control to 100 nM, FIG. 8B/8C. The format is cell-based, human. How it is done:
FIG. 8A is a bar graph showing mammosphere formation in MCF7 cells at various concentrations of DPI, and including Ribociclib at 100 nM. […] Most importantly, e-CSCs derived from 3D-spheroids are highly oxidative and can be effectively targeted with an OXPHOS inhibitor. Non-limiting examples of other OXPHOS inhibitors that may be used in the present approach include atovaquone, irinotecan, sorafenib, niclosamide, and berberine chloride.
Data were analyzed with FlowJo 10.1 software.
For 3D-spheroid suspensions, after 5 days of growth under low-attachment condition, the spheres were collected from six 225 cm2 flasks pre-coated with poly-HEMA and gently centrifuged at 100 g for 5 min. After centrifugation, 1 ml of 0.025% of trypsin was added to the “sphere-pellet” and incubated them at 37° C. for 5 minutes. Using a 25-gauge needle, the sphere-suspension was passed through the syringe 4 times. […] After creating these single-cell suspensions, they were subjected to standard flow-cytometry (using the SONY SH800 Cell Sorter) to isolate the auto-fluorescent cell sub-populations, as indicated above. Examples of flow-cytometry plots are included in the figures, and the gating strategy is shown.

In data set [3] the test system is MCF7 cells. Description: Mammosphere formation assay (3D-spheroids). The format is cell-based, human. The settings on record: for mammosphere formation in MCF7 cells: dose-dependent (0, 50 and 100 nM), FIG. 8A. How it is done: Mammosphere formation assay (for generating 3D-spheroids): A single-cell suspension was prepared using enzymatic, and manual disaggregation (25 gauge needle). […] After 5 days of culture, 3D-spheres >50 μm were counted using an eye piece (“graticule”), and the percentage of cells plated which formed spheres was calculated and is referred to as percent mammosphere formation, and was normalized to one (1=100% MSF). Mammosphere formation efficiency was analyzed in both the “low” and “high” sub-populations of auto-fluorescent cells, generated from either 2D-monolayers (M-L vs. M-H) or 3D-spheroids (S-L vs. S-H). All mammosphere experiments were performed in triplicate, at least 3 times independently.

For data set [4] the following is noted: breast cancer patients; cited from earlier work.
For data set [5], the system named is MCF7 cells. The following applies: cited from earlier work.
Data set [6] concerns M-H cells from MCF7 monolayers.
Data set [7] relates to MCF7 monolayers. The following applies: after 130 hours of DPI treatment, FIG. 7C.
Method: The data represents 100,000 cells after 120 hours of DPI treatment.
Vital mitochondrial staining: Cells were trypsinized and re-suspended into a 1×10^6 cell/ml solution in PBS. 10 nM of MitoTracker Deep-Red (Thermo Fisher Scientific) was added for 30 minutes at 37° C. before centrifugation and re-suspension in PBS Ca/Mg for FACS analysis (ATTUNE NxT) or Cell Sorting (SONY SH 800). All subsequent steps were performed in the dark. Data analysis was performed using FlowJo software.

This is an account of results in patent US11441195B2, “Energetic cancer stem cells (e-CSCs): a new hyper-metabolic and proliferative tumor cell phenotype, driven by mitochondrial energy” (LUNELLA BIOTECH, INC., priority 2018, dated 2022).

Take `C[C@@H]1O[C@@H](O[C@@H]2[C@@H](Oc3cc(O)c4c(c3)O[C@H](c3ccc(O)cc3)CC4=O)O[C@@H](COC(=O)C[C@@](C)(O)CC(=O)O)[C@H](O)[C@H]2O)[C@@H](O)[C@H](O)[C@H]1O` [melitidin]: in data set [1], the “3D tumor sphere formation” value is reported as “successfully blocked”.
On to `CC[C@H]1OC(=O)[C@H](C)[C@@H](O[C@H]2C[C@@](C)(OC)[C@@H](O)[C@H](C)O2)[C@H](C)[C@@H](O[C@@H]2O[C@H](C)C[C@H](N(C)C)[C@H]2O)[C@](C)(O)C[C@@H](C)CN(C)[C@H](C)[C@@H](O)[C@]1(C)O` [azithromycin], for which, in data set [1], the “3D tumor sphere formation” value is “successfully blocked”.
As for `COc1ccc2cc3[n+](cc2c1OC)CCc1cc2c(cc1-3)OCO2` [berberine], the “3D tumor sphere formation” value in data set [1] is “successfully blocked”.
In the case of `COc1ccc([C@@H]2CC(=O)c3c(O)cc(O[C@@H]4O[C@H](COC(=O)CC(C)(O)CC(=O)O)[C@@H](O)[C@H](O)[C@H]4O[C@@H]4O[C@@H](C)[C@H](O)[C@@H](O)[C@H]4O)cc3O2)cc1O` (stereo partly shown) [brutieridin], the “3D tumor sphere formation” value in data set [1] is listed as “successfully blocked”.
Regarding `CCCCC[C@H](CC(=O)NO)C(=O)N[C@H](C(=O)N1CCC[C@H]1CO)C(C)C` [actinonin], in data set [1], the “3D tumor sphere formation” value is reported as “successfully blocked”.
For the molecule `COc1nc2ccc(Br)cc2cc1[C@@H](c1ccccc1)[C@@](O)(CCN(C)C)c1cccc2ccccc12` [bedaquiline], the “3D tumor sphere formation” value in data set [1] is “successfully blocked”.
On to `CN(C)c1cc(NC(=O)CNC(C)(C)C)c(O)c2c1C[C@H]1C[C@H]3[C@H](N(C)C)C(O)=C(C(N)=O)C(=O)[C@@]3(O)C(O)=C1C2=O` [tigecycline], for which, in data set [1], the “3D tumor sphere formation” value was “successfully blocked”.
As for `CC[C@H]1/C=C/C=C/C[C@@H](C)[C@H](O)[C@@](C)(O)C(=O)[C@@H](C)[C@H](O)[C@@H](C)C(=O)[C@@H](C)[C@H](O)[C@@H](C)/C=C/C(=O)O[C@@H]2[C@H](C)[C@H](CC1)O[C@]1(CC[C@H](C)[C@H](C[C@@H](C)O)O1)[C@H]2C` [oligomycin], in data set [1], the “3D tumor sphere formation” value was “successfully blocked”.
In the case of `CN(C)C(=O)c1cc2cnc(Nc3ccc(N4CCNCC4)cn3)nc2n1C1CCCC1` [Ribociclib], the “propagation of S-H cells” value in data set [2] (FIGS. 8A-C) is recorded as “effectively inhibits”. For the same molecule, in data set [2], the “change in S-H cells” value is listed as “decreasing”. In addition, the “mammosphere formation in MCF7 cells” value in data set [3] is listed as “inhibited”. For the same molecule, the most common side-effects result in data set [4] was “neutropenia, anemia and GI-distress”.
In the case of `Cc1n[nH]c(C)c1Cc1sc2c(c1C(=O)N1C[C@H](O)CO1)c(=O)n(C)c(=O)n2CC(C)C` [AR-C155858], the “3D tumor sphere formation” value in data set [1] is recorded as “successfully blocked”.
`[Cl-].c1ccc2c(c1)[I+]c1ccccc1-2` [DPI, Diphenyleneiodonium chloride]: in data set [5], the mitochondrial function entry is “selectively inhibits” and the toxic side effects entry is recorded as “without any toxic side effects”. In data set [5] (prior studies), the “changes in cell viability or apoptosis” value was “did not induce changes” and the metabolic phenotype shift result is “shifted the cells towards a more glycolytic phenotype”. In addition, in data set [6] (100 nM DPI, 2D-monolayer cultures, 5-day period), the “increase in the number of M-H cells” value is roughly 7.5 fold. For the same molecule, in data set [6] (5-day period (120 hours), concentration dependent, FIG. 7B), the “percentage of M-H cells after treatment” value was “increased”. In addition, in data set [2] (100 nM), the “depletion of S-H cells in anchorage-independent single live cells” value is listed as roughly 60%. For the same molecule, in data set [2], the “change in S-H cells” value is reported as “decreasing”. In addition, in data set [3], the “3D-spheroid formation in MCF7 cells” value is “inhibits” and the “mammosphere formation in MCF7 cells” value is reported as “inhibited”. In data set [3] (100 nM), the 3D-mammosphere formation entry is “almost completely inhibited”. Besides, the “mitochondrial mass (MitoTracker)” value in data set [7] is listed as “increased”.
